Laboratory results reported in ChEMBL document CHEMBL4665749, “Usnic Acid Conjugates with Monoterpenoids as Potent Tyrosyl-DNA Phosphodiesterase 1 Inhibitors” (J Nat Prod, 2020).
pIC50: −log10 of the molar value.

Assays:
HeLa [1] = test: Cytotoxicity against human HeLa cells assessed as reduction in cell viability after 3 days by fluorometric assay; assay type: functional; details: 72 h
[2] = target: Tyrosyl-DNA phosphodiesterase 1 (Homo sapiens, UniProt Q9NUW8); test: Inhibition of recombinant TDP1 (unknown origin) expressed in Escherichia coli using 5'-FAM/3'-BHQ1 tagged oligonucleotide as substrate by fluorescence assay
HeLa [3] = test: Cytotoxicity against human HeLa cells assessed as reduction in cell viability after 3 days in presence of topotecan by fluorometric assay; assay type: functional; details: 72 h
HeLa [4] = test: Potency index, ratio of CC50 of topotecan to CC50 of compound for human HeLa cells assessed as reduction in cell viability after 3 days in presence of topotecan by fluorometric assay; assay type: functional

Sequence of Tyrosyl-DNA phosphodiesterase 1 (Q9NUW8 whole entry): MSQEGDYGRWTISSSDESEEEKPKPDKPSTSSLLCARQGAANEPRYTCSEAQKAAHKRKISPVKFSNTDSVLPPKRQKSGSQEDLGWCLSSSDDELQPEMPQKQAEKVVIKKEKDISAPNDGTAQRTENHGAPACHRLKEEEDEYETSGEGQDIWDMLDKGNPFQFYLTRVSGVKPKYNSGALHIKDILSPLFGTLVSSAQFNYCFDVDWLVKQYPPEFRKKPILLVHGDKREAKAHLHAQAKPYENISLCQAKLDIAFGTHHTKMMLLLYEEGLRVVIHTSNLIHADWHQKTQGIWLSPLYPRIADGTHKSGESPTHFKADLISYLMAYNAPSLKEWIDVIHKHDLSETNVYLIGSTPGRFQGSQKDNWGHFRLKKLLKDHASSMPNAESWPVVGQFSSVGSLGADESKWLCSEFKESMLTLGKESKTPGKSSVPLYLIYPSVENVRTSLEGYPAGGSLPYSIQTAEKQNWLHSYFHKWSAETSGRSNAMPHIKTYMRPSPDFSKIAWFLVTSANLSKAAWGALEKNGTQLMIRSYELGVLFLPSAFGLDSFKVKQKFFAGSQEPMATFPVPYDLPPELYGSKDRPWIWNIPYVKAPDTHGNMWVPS

Structure (SMILES)	pIC50 [2]	CC50 (HeLa [1]) [µM]	CC50 (HeLa [3]) [µM]	Ratio (HeLa [4])
CCCCCCCC=NNc1nc(-c2c(O)c(C)c(O)c3c2OC2=CC(O)=C(C(C)=O)C(=O)[C@@]23C)cs1	7.06	20		
CC(=O)C1=C(O)C=C2Oc3c(-c4csc(N/N=C\C5=C[C@@H]6C[C@H](C5)C6(C)C)n4)c(O)c(C)c(O)c3[C@@]2(C)C1=O	7.35	> 100	2.7	1.7
C=C(C)[C@H]1CC=C(/C=N\Nc2nc(-c3c(O)c(C)c(O)c4c3OC3=CC(O)=C(C(C)=O)C(=O)[C@@]34C)cs2)CC1	7.57	20	1.2	3.8
CC(=O)C1=C(O)C=C2Oc3c(-c4csc(NN=C5C=C(C)[C@H]6C[C@@H]5C6(C)C)n4)c(O)c(C)c(O)c3[C@@]2(C)C1=O (mixture of isomers)	7.34	20	3.5	1.3
CC[C@@]1(O)C(=O)OCc2c1cc1n(c2=O)Cc2cc3c(CN(C)C)c(O)ccc3nc2-1 [TOPOTECAN]		4.5		

Continued, in another order:

pIC50 [2]	Structure (SMILES)	CC50 (HeLa [1]) [µM]	CC50 (HeLa [3]) [µM]	Ratio (HeLa [4])
7.51	CC(=O)C1=C(O)C=C2Oc3c(-c4csc(N/N=C5/C[C@H]6CC[C@]5(C)C6(C)C)n4)c(O)c(C)c(O)c3[C@@]2(C)C1=O	20	2.7	1.7
7.79	CC(=O)C1=C(O)C=C2Oc3c(-c4csc(NN=CCC(C)CCC=C(C)C)n4)c(O)c(C)c(O)c3[C@@]2(C)C1=O (stereo not given in full)	20	0.63	7.1
6.86	CC(=O)C1=C(O)C=C2Oc3c(-c4csc(NN=CCC(C)CCCC(C)(C)O)n4)c(O)c(C)c(O)c3[C@@]2(C)C1=O (stereo not given in full)	20		
